Measurements as given in PMC11984924, “Dipeptidic Phosphonates: Potent Inhibitors of Pseudomonas aeruginosa Elastase B Showing Efficacy in a Murine Keratitis Model” (Advanced Science, 2025).
Where two headings read alike, the source gives them in different places.

Biological target: T1, LasB (Pseudomonas aeruginosa, UniProt Q02RJ6)
T1 construct: made in house
Experiment: In vitro LasB inhibition assay
Format: biochemical
Details: for fold loss in inhibition: bulkier residues
Procedure: 3.1 In vitro inhibition assays
LasB was expressed and purified as described previously.[3] In vitro inhibition assays (LasB,
MMPs, TACE). All in vitro inhibition assays were performed as described previously.[10] […]
Fluorescence signals were measured using a CLARIOstar plate reader (BMG
Labtech, Ortenberg, Germany). […]

T1 sequence (Q02RJ6 198-498): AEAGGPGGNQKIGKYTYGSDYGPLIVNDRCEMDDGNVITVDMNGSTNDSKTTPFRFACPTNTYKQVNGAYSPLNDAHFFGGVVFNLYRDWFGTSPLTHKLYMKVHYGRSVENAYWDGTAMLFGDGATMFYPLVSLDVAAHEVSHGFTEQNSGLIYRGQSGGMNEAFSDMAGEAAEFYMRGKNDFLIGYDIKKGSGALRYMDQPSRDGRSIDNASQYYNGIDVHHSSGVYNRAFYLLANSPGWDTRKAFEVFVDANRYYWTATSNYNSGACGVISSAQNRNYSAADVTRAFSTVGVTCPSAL

| Compound | IC50 (IC50 LasB inhibition) [nM] | IC50 (read-out: IC50 LasB inhibition) [nM] | further results |
| --- | --- | --- | --- |
| CC(C)CC(C(=O)N[C@H](CC(=O)Nc1ccc(Cl)c(Cl)c1)C(C)C)P(=O)(O)O (stereo partly shown) [compound 11] | 2720 ± 55 |  |  |
| CC(C)CC(C(=O)N[C@H](C(=O)Nc1ccc(Cl)c(Cl)c1)c1ccccc1)P(=O)(O)O (stereo partly shown) [compound 22] |  | 99.6 ± 2.5 |  |
| CC(=O)c1ccc(NC(=O)[C@@H](NC(=O)[C@H](CC(C)C)P(=O)(O)O)C(C)C)cc1 [(S)‐30] | 129 ± 4 |  |  |
| CC(C)CC(C(=O)N[C@H](C(=O)Nc1ccc(C(F)(F)F)cc1)C(C)C)P(=O)(O)O (stereo partly shown) [compound 29] | 15.2 ± 0.3 |  |  |
| CC(C)CC(C(=O)N[C@@H](CC1CCCCC1)C(=O)Nc1ccc(Cl)c(Cl)c1)P(=O)(O)O (stereo partly shown) [compound 19] |  |  | fold loss in inhibition: over 48 fold |
| COc1ccc(NC(=O)[C@@H](NC(=O)C(CC(C)C)P(=O)(O)O)C(C)C)cc1 (stereo partly shown) [compound 33] | 19.9 ± 0.8 |  |  |
| CC(C)CC(C(=O)N[C@@H](CC1CC1)C(=O)Nc1ccc(Cl)c(Cl)c1)P(=O)(O)O (stereo partly shown) [compound 16] |  | 27.1 ± 0.9 |  |
| CC(C)CC(C(=O)N[C@H](C(=O)Nc1ccc(Cl)cc1)C(C)C)P(=O)(O)O (stereo partly shown) [compound 27] | 9 ± 0.4 |  |  |
| CC(C)CC(C(=O)N[C@H](C(=O)Nc1cccc(Cl)c1)C(C)C)P(=O)(O)O (stereo partly shown) [compound 28] | 282 ± 13 |  |  |
| CC[C@H](C)[C@H](NC(=O)C(CC(C)C)P(=O)(O)O)C(=O)Nc1ccc(Cl)c(Cl)c1 (stereo partly shown) [compound 15] |  | 13.1 ± 0.5 |  |
| CC(C)C[C@H](C(=O)N[C@@H](Cc1cccnc1)C(=O)Nc1ccc(Cl)c(Cl)c1)P(=O)(O)O [(R)‐25] |  | 574 ± 16 |  |
| CC(C)CC(C(=O)N[C@H](C(=O)Nc1ccc(Oc2ccccc2)cc1)C(C)C)P(=O)(O)O (stereo partly shown) [compound 35] | 8 ± 0.3 |  |  |
| CC(C)CC(C(=O)N[C@H](C(=O)Nc1ccc(N2CCOCC2)cc1)C(C)C)P(=O)(O)O (stereo partly shown) [compound 37] | 83.7 ± 2.1 |  | fold decrease in activity compared to 9 (compared to 9): 16 fold |
| Cc1ccc(NC(=O)[C@@H](NC(=O)C(CC(C)C)P(=O)(O)O)C(C)C)cc1 (stereo partly shown) [compound 32] | 12.9 ± 0.4 |  |  |
| CC(C)CC(C(=O)N[C@@H](C)C(=O)Nc1ccc(Cl)c(Cl)c1)P(=O)(O)O (stereo partly shown) [compound 8] |  | 61.7 ± 1.6 | fold increase in activity (alanine versus glycine dipeptide 7): 28 fold |
| CC(C)CC(C(=O)N[C@H](C(=O)Nc1ccc(OC(C)C)cc1)C(C)C)P(=O)(O)O (stereo partly shown) [compound 34] | 56.7 ± 2 |  |  |
| CC(C)CC(C(=O)N[C@@H](Cc1ccccc1)C(=O)Nc1ccc(Cl)c(Cl)c1)P(=O)(O)O (stereo partly shown) [compound 23] |  | 426 ± 48 |  |
| CC(C)CC(C(=O)N[C@@H](C(=O)Nc1ccc(Cl)c(Cl)c1)C(C)C)P(=O)(O)O (stereo partly shown) [compound 10] | 11.3 ± 0.4 |  |  |
| COC[C@H](NC(=O)[C@@H](CC(C)C)P(=O)(O)O)C(=O)Nc1ccc(Cl)c(Cl)c1 [(R)‐18] | 86.7 ± 3.6 |  |  |
| CC(C)CC(C(=O)N[C@@H](CC1CCOCC1)C(=O)Nc1ccc(Cl)c(Cl)c1)P(=O)(O)O (stereo partly shown) [compound 20] |  | 379 ± 8 | fold loss in inhibition: over 48 fold |
| CC(C)CC(C(=O)Nc1ccc(C(F)(F)F)cc1)P(=O)(O)O (stereo not shown) [compound 5, reference compound] |  |  | fold enhancement in IC50 compared to the original hit (compared to thiol-based hit 4): 18 fold |
| CC(C)CC(C(=O)N[C@@H](CC(C)C)C(=O)Nc1ccc(Cl)c(Cl)c1)P(=O)(O)O (stereo partly shown) [compound 17] |  | 59.4 ± 1.7 |  |
| CC(C)CC(C(=O)N[C@H](C(=O)Nc1ccc(Cl)c(Cl)c1)C1CC1)P(=O)(O)O (stereo partly shown) [compound 12] | 28.8 ± 0.8 |  |  |
| CC(C)C[C@@H](C(=O)N[C@H](C(=O)Nc1ccc(-n2ccnc2)cc1)C(C)C)P(=O)(O)O [(S)‐36] | 417 ± 14 |  |  |
| COC[C@H](NC(=O)[C@H](CC(C)C)P(=O)(O)O)C(=O)Nc1ccc(Cl)c(Cl)c1 [(S)‐18] | 197 ± 5.4 |  |  |
